# Test results reported in ChEMBL document CHEMBL1201862, “PubChem BioAssay data set” (2004).
# The source made the active and inactive calls.
# What was measured:
# [1] = target: 72 kDa type IV collagenase (Homo sapiens, UniProt P08253); experiment: Dose Response validation of uHTS RPN11 inhibitor hits using a MMP-2 Fluorescence assay.; format: functional
# [2] = target: 26S proteasome non-ATPase regulatory subunit 14 (Homo sapiens, UniProt O00487); experiment: inhibition of proteasome subunit RPN11 – biochemical, fluorescence polarization, uHTS hits, confirmation (AID 602368); format: functional
# Prothrombin = Prothrombin (Bos taurus, UniProt P00735); experiment: thrombin inhibition, dose response, biochemical, fluorescence polarization, uHTS hits (AID 602369); format: functional
# [3] = cytotoxicity in HEK-293T cells, dose response, cytotoxicity control for TCR NF-kB inhibitor project, luminescence, T-cell screen hits (AID 489026); format: functional, cell-based;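 note: cells exposed to compound about 14 hours before the viability readout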
# HEK293 [4] = experiment: NOD1 signaling inhibitors, primary screen, cell-based, luminescence, uHTS (AID 1578); format: functional; settings: Homo sapiens
# HEK293 [5] = experiment: NOD2 signaling inhibitors in MDP-stimulated cells, cell-based, uHTS, luminescence (AID 2001); format: functional; settings: Homo sapiens
# HEK293 [6] = experiment: cells; format: functional, cell-based; settings: Homo sapiens
# [7] = cytotoxicity toward NIH3T3 fibroblasts, dose response, counter-screen, cell-based, ATP luminescence, mouse fibroblasts (AID 2010); format: functional;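 note: cells exposed to compound for about 90 hours before reading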
# [8] = target: FAD-linked sulfhydryl oxidase ALR (Homo sapiens, UniProt P55789); experiment: inhibitors of human ALR sulfhydryl oxidase, dose response, biochemical, H2O2 detection, luminescence, cherry-pick (AID 493248)
# HEK293 [9] = experiment: cells; format: functional, cell-based; settings: Homo sapiens; remark: listed apart in the source
# [10] = inhibitors of intracellular T. cruzi replication, confirmation, NIH3T3 host cells, beta-gal luminescence (AID 2044); format: functional, cell-based;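 note: intracellular parasites grown in NIH/3T3 mouse fibroblasts as host cells; luminescent beta-galactosidase reporter signal from transgenic T. cruzi replicating inside host cells; inhibitors lower the luminescence signal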
# Jurkat = experiment: SAR Analysis of small molecule inhibitors of T-cell specific antigen receptor-induced NF-kB activation in a Jurkat cell line using a luminescence assay - Set 2. [Related pubchem assays (depositor defined):AID435003, AID435012, AID465]; format: functional, cell-based; settings: Homo sapiens
# HEK293 [11] = experiment: SAR Analysis of small molecule inhibitors of T-cell specific antigen receptor-induced NF-kB activation in a HEK-293T cell line using a luminescence assay - Set 2. [Related pubchem assays (depositor defined):AID435003, AID435012, AID489026]; format: functional, cell-based; settings: Homo sapiens
# HEK293 [12] = experiment: cytotoxicity in HEK293T NF-kB-Luc cells, SAR follow-up, cytotoxicity control for NF-kB activator project, cell-based, resazurin fluorescence (AID 493251); format: functional; settings: Homo sapiens
# [13] = Luminescence Cell-Based Dose Confirmation HTS to Identify Inhibitors of Platelet Dense Granule Release. [Related pubchem assays: 1663 (Primary HTS), 1678 (Summary of Project)]; format: functional
# [14] = target: T1, Voltage-gated N-type calcium channel alpha-1B subunit/Amyloid beta A4 precursor protein-binding family A member 1 (Homo sapiens, UniProt Q00975+Q02410); format: protein assay
# [15] = target: T2, NACHT, LRR and PYD domains-containing protein 1 (Homo sapiens, UniProt Q9C000); experiment: NALP1 inhibitors in yeast, dose response, luminescent (AID 488860); format: functional
# T2 sequence (Q9C000 whole entry): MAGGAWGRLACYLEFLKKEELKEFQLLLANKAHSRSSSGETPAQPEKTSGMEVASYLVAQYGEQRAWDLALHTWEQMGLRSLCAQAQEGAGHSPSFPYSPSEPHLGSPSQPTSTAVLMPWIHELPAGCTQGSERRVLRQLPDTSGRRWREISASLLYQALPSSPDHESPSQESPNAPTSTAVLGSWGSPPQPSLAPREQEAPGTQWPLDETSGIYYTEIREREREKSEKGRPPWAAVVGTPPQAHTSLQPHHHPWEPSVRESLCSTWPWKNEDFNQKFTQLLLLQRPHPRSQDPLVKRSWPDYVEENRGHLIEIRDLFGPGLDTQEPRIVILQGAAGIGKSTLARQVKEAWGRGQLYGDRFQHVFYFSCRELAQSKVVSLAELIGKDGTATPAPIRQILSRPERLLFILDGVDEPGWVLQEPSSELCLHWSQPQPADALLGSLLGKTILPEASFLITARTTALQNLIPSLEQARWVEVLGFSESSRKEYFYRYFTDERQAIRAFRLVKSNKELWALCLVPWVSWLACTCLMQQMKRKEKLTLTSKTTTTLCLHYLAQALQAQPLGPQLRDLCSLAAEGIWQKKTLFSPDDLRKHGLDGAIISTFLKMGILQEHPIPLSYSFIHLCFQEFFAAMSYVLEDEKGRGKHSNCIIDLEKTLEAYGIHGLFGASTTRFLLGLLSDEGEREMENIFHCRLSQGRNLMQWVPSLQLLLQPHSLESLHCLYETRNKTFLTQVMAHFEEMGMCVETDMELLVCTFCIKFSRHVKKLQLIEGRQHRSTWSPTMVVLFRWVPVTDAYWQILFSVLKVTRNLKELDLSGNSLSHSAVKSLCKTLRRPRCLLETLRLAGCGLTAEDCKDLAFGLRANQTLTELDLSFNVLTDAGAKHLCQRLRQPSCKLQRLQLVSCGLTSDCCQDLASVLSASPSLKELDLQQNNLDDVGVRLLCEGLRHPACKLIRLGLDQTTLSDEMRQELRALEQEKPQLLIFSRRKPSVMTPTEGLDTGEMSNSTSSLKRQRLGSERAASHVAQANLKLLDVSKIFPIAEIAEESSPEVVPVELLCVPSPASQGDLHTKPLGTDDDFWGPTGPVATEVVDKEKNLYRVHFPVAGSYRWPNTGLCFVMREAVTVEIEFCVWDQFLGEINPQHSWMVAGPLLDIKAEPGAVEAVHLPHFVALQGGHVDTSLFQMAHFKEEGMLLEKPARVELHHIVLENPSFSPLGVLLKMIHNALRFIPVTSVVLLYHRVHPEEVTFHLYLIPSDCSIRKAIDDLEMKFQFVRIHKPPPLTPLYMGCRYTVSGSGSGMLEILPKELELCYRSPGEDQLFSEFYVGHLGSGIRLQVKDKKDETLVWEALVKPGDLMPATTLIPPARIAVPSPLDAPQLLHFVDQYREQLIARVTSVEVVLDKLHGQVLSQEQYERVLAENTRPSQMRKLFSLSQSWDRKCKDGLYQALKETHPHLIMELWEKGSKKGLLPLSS
# Saccharomyces cerevisiae = experiment: NALP1 inhibitor project selectivity study, Caspase-1/ASC signal blockade IC50 in S. cerevisiae (AID 488863); format: functional, organism-based
# [16] = target: T3, Heat shock factor protein 1 (Mus musculus, UniProt P38532); experiment: inhibition of MG132-induced HSE-luciferase signal, confirmation, cell-based, NIH3T3, luminescence, dose retest (AID 2382); format: functional;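 note: NIH3T3 fibroblasts with HSF1-driven luciferase reporter stressed by proteasome inhibitor MG132; luminescence from HSF1-driven luciferase expression after 8 hours of MG132 stress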
# T3 sequence (P38532 whole entry): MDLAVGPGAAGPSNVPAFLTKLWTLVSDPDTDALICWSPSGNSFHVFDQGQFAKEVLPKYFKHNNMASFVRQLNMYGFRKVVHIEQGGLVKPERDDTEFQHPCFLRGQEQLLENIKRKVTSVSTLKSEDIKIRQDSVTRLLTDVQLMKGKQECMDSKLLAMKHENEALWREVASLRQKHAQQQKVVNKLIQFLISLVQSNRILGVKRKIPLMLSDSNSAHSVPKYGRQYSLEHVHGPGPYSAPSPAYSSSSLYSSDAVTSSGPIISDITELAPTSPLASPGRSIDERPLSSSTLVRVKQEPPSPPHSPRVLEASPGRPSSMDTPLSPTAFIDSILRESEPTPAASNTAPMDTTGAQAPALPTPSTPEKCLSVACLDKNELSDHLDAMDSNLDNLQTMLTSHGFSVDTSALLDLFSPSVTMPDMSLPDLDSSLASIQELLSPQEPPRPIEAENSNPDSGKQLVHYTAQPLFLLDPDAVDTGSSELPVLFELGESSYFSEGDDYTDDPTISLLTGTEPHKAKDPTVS
# [17] = target: Heat shock protein HSP 90-alpha (Homo sapiens, UniProt P07900); format: functional, organism-based
# [18] = target: Luciferin 4-monooxygenase (Photinus pyralis, UniProt P08659); experiment: firefly luciferase enzyme inhibitors, dose response, biochemical, luminescence (AID 1891)
# [19] = target: T1, Voltage-gated N-type calcium channel alpha-1B subunit/Amyloid beta A4 precursor protein-binding family A member 1; format: protein assay; remark: listed apart in the source
# [20] = target: DNA damage-inducible transcript 3 protein (Mus musculus, UniProt P35639); format: functional, Cricetulus griseus
# Escherichia coli = experiment: microbe, parasite or virus in culture
# [21] = inhibitors of SNCA 5'UTR-driven reporter translation, confirmation, H4 neuroglioma cells, luminescence (AID 1988); format: functional, cell-based
# [22] = target: T3, Heat shock factor protein 1; experiment: HSF1 potentiators in luciferase reporter cells, confirmation, cell-based, NIH3T3, luminescence, dose retest (AID 435004); format: functional;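 note: stress induced by proteasome inhibitor MG132 added 30 min after compound; luciferase reporter driven by HSF1 response element in NIH3T3 cells; actives raise luminescence as potentiators of the MG132 stress response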
# [23] = inhibitors of firefly luciferase expression or activity, dose response, H4 neuroglioma cells, luminescence (AID 1990); format: functional, cell-based
# INS1 = experiment: beta cell apoptosis inhibitors, cytokine rescue, dose response, luminescence, retest (AID 449756); format: functional, cell-based; settings: Rattus norvegicus;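 note: cell death triggered by IL-1 beta plus TNF-alpha plus IFN-gamma mixture; protective hits raise ATP signal compared with cytokine alone wells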
# [24] = Luminescence Cell-Based Dose Response HTS to Identify Inhibitors of 5'UTR Stem-Loop Driven Prion Protein mRNA Translation in H4 Neuroglioblastoma Cells. [Related pubchem assays: 1827 (Project Summary), 1813 (Primary HTS)]; format: functional
# [25] = Luminescence Cell-Based Dose Confirmation HTS to Identify Activators of 5'UTR Stem-Loop Driven Alpha-Synuclein mRNA Translation in H4 Neuroglioblastoma Cells. [Related pubchem assays: 1829 (Project Summary), 1814 (Primary HTS)]; format: functional
# [26] = Luminescence Cell-Based Dose Response HTS to Identify Activators of Luciferase Translation or Activity in H4 […] Cells. [Related pubchem assays: 1829 (Project Summary), 1814 (Primary HTS)]; format: functional
# H4 = experiment: Luminescence Cell-Based Dose Response HTS to Identify Activators of 5'UTR Stem-Loop Driven Prion Protein mRNA Translation in H4 Neuroglioblastoma Cells. [Related pubchem assays: 1829 (Project Summary), 1814 (Primary HTS)]; format: functional; settings: Homo sapiens
# 72 kDa type IV collagenase, sequence (P08253 whole entry): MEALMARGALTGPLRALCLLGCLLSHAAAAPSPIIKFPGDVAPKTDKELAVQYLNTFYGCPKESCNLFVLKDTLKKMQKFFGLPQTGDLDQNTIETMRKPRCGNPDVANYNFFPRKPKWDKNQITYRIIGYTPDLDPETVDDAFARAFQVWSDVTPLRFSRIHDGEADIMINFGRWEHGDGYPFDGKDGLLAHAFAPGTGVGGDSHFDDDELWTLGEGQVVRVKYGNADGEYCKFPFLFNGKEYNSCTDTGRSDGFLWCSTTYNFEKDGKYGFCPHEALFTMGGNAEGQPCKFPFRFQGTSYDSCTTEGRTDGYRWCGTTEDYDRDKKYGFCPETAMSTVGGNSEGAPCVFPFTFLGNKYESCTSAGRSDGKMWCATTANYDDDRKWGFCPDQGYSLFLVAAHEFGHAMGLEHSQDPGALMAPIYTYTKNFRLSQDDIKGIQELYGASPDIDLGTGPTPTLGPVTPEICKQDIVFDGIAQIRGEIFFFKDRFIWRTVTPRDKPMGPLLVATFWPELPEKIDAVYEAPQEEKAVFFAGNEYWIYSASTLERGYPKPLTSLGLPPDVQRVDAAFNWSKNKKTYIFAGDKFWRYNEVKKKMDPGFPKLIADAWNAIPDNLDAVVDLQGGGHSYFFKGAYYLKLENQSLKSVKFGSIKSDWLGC
# T1 sequence (Q00975 whole entry, the tested form may be a part): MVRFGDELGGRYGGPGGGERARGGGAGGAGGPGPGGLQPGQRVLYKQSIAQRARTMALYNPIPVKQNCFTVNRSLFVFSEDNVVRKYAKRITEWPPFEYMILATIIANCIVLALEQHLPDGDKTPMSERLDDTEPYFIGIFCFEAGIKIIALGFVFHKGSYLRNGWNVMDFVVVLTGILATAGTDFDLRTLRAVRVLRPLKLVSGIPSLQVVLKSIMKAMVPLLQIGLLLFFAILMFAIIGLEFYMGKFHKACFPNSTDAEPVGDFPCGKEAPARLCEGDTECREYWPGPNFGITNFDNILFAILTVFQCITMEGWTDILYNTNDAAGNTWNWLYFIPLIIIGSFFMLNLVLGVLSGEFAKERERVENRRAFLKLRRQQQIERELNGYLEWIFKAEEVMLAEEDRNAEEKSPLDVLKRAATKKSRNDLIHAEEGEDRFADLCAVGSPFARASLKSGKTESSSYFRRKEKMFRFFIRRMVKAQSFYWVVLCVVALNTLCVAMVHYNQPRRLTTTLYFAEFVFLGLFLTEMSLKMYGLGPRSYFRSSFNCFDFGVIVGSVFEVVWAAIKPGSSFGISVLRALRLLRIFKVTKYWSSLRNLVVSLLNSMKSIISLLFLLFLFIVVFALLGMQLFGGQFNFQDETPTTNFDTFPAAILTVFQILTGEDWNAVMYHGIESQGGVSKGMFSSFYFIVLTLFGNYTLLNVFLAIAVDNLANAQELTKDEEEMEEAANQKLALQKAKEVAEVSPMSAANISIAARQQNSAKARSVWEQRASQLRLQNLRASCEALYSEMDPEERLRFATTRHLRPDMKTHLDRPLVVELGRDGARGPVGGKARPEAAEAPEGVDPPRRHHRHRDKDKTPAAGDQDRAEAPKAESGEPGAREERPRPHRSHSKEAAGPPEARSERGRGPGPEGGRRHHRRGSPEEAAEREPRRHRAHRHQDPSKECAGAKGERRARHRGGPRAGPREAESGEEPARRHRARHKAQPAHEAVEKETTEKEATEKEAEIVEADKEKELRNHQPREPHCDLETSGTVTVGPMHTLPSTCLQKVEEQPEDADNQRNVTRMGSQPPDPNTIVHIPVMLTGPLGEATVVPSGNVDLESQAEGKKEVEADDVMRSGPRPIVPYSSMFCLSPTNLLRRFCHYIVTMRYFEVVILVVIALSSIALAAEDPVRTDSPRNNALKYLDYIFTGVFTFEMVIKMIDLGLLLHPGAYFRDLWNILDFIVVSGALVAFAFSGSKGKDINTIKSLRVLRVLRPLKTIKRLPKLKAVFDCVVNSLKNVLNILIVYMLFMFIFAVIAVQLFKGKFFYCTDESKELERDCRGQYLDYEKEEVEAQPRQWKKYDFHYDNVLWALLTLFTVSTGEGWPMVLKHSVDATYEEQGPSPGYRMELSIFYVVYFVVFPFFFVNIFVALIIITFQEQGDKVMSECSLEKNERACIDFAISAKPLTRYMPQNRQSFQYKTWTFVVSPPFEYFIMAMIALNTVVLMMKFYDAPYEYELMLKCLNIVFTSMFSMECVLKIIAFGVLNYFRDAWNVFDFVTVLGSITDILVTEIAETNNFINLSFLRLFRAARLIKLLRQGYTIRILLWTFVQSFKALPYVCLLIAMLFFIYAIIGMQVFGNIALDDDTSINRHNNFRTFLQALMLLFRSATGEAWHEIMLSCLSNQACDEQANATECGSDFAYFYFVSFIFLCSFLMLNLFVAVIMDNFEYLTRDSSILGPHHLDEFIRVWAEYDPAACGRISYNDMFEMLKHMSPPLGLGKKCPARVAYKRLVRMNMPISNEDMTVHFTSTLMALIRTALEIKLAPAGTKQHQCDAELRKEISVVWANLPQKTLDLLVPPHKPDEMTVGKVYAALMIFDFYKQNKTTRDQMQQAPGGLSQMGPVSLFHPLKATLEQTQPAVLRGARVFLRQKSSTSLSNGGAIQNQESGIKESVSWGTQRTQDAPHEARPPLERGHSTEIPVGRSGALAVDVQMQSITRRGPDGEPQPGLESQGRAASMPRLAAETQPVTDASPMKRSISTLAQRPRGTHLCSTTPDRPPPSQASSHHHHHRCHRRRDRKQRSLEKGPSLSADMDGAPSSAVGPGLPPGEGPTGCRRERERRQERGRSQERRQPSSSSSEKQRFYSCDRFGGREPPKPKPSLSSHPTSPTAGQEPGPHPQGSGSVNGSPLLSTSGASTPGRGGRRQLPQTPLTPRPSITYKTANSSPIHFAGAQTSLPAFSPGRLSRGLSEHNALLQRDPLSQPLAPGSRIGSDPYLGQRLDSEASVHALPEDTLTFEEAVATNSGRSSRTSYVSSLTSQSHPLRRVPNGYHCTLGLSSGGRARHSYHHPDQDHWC
# T1 sequence (Q02410 whole entry, the tested form may be a part): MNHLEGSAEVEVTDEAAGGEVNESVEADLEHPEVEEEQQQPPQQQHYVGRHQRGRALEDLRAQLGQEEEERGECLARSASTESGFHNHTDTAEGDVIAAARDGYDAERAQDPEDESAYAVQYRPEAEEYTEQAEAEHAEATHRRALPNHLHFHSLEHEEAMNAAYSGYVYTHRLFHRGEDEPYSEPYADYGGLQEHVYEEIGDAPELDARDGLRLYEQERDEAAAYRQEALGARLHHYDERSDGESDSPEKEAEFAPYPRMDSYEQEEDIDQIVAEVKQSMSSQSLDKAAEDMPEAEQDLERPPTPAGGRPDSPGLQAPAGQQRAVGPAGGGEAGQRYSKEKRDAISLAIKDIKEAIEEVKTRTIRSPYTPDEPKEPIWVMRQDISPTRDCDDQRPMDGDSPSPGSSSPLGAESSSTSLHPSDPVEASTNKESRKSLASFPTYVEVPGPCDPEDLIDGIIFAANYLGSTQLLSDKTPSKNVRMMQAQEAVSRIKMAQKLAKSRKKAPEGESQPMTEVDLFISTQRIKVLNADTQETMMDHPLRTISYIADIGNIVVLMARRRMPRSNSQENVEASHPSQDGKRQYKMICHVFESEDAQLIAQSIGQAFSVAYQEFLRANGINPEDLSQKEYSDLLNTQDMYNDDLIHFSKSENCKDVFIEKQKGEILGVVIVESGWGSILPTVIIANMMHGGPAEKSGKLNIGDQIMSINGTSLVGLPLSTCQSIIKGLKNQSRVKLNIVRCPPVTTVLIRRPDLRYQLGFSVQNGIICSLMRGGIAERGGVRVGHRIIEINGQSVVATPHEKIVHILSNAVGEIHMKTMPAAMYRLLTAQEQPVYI
# 26S proteasome non-ATPase regulatory subunit 14, sequence (O00487 whole entry): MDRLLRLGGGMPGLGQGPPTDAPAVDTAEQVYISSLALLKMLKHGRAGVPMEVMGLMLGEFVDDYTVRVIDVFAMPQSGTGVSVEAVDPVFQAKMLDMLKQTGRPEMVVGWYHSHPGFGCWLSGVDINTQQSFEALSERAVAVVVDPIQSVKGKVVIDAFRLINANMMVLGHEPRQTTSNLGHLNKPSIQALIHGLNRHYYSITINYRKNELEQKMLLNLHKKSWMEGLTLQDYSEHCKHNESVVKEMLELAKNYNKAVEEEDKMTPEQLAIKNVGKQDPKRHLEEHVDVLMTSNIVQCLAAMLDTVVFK
# FAD-linked sulfhydryl oxidase ALR, sequence (P55789 whole entry): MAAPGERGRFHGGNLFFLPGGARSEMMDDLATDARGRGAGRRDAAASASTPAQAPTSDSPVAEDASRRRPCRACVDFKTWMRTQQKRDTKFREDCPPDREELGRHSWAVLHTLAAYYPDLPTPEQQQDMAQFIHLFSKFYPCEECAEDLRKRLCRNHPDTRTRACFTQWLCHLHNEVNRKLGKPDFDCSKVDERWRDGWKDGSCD
# Luciferin 4-monooxygenase, sequence (P08659 whole entry): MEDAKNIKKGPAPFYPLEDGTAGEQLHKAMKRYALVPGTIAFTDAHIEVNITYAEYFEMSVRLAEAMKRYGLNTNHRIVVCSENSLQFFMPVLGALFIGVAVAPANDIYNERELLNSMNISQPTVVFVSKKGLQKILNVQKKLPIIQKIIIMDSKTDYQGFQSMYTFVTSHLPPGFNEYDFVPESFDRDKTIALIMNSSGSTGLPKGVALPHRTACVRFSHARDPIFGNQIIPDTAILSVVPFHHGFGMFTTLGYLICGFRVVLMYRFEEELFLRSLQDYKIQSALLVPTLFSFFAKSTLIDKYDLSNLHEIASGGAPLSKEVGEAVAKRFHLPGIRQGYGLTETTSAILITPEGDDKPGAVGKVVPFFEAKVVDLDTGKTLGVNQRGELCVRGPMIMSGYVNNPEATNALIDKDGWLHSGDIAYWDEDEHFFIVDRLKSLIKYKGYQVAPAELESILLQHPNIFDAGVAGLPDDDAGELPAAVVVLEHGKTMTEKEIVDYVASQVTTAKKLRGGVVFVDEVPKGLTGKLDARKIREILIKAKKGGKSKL
# DNA damage-inducible transcript 3 protein, sequence (P35639 whole entry): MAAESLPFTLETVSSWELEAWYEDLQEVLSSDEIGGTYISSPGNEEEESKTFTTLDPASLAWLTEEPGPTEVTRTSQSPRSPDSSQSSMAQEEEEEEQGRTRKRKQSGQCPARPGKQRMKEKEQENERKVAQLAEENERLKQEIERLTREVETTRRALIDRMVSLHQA
smiles,measurement,setting,value
COc1cc(/C=C2/C(=N)N3C(=NC2=O)SN=C3S(C)(=O)=O)ccc1OC(=O)c1ccco1,IC50,[1],94.8 µM (active)
same,IC50,[2],31.9 µM (active)
same,IC50,Prothrombin,34.4 µM (active)
COC(=O)c1ccccc1NC(=O)CSc1nc(-c2ccco2)cc(C(F)(F)F)n1,IC50,[3],> 80 µM (inactive)
Cc1ccc2c(c1)N(C)/C(=C/c1cccc[n+]1C)S2,EC50,HEK293 [4],13.3 µM (active)
same,IC50,HEK293 [5],17 µM (inactive)
same,IC50,HEK293 [6],> 20 µM (inactive)
same,EC50,cells,15 nM (active)
same,EC50,[7],> 60 µM (not active)
same,AC50,[8],63.1 µM (active)
same,IC50,HEK293 [9],10.6 µM (active)
same,EC50,[10],< 100 nM (active)
CCc1cc(C(=O)NC2CCCN(Cc3ccccc3F)C2)n(C)n1 (centres undefined),EC50,HEK293 [4],9.78 µM (active)
same,IC50,HEK293 [5],> 20 µM (inactive)
same,IC50,HEK293 [6],> 20 µM (inactive)
same,IC50,HEK293 [9],16.5 µM (active)
Cc1cc(-c2nc3ncccc3o2)ccc1NC(=O)c1ccc([N+](=O)[O-])o1,IC50,Jurkat,19.4 µM (active)
same,IC50,HEK293 [11],30 µM (inactive)
same,IC50,HEK293 [12],32 µM (inactive)
COc1ccc(/C=C2\Oc3cc(OCC(=O)N4CCC[C@H]4C(=O)O)ccc3C2=O)c(OC)c1,IC50,[1],> 100 µM (inactive)
same,IC50,[2],11 µM (active)
same,IC50,Prothrombin,14.3 µM (active)
COC(=O)/C=C\C(=O)Nc1cccc([N+](=O)[O-])c1,EC50,[13],9.34 µM (active)
same,IC50,[14],10.1 µM (active)
same,IC50,[15],10.9 µM (active)
same,IC50,Saccharomyces cerevisiae,7.1 µM (active)
same,EC50,[16],> 195 µM (not active)
same,AC50,[17],3.67 µM (active)
same,EC50,[18],> 112 µM (not active)
same,IC50,[19],2.1 µM (active)
same,Absolute IC50 (CHOP),[20],10 µM
CCOc1ccc(C(=O)Nc2ccc(NC(=O)c3cc4ccccc4o3)cc2)cc1[N+](=O)[O-],IC50,Jurkat,48.8 µM (inactive)
same,IC50,HEK293 [11],> 80 µM (inactive)
same,IC50,HEK293 [12],> 80 µM (inactive)
CC(C)(C)OC(=O)NCC(=O)N1CCC(C(=O)O)CC1,AC50,Escherichia coli,26.6 µM (active)
O=[N+]([O-])c1ccc(-c2nc(C(Cl)Cl)c3ccccc3n2)cc1,EC50,[21],336 nM (active)
same,IC50,[3],> 80 µM (inactive)
same,EC50,[22],> 260 µM (inconclusive)
same,EC50,[23],1.79 µM (active)
same,AC50,INS1,1.89 µM (active)
same,EC50,[24],407 nM (active)
COc1ccc(C(=O)Nc2ccc(NC(=O)c3cc4ccccc4o3)cc2)cc1OC,IC50,Jurkat,> 79 µM (inactive)
same,IC50,HEK293 [11],> 80 µM (inactive)
same,IC50,HEK293 [12],> 80 µM (inactive)
CC1Cc2cc(C(=O)C3=C(O)C(=O)N(Cc4ccco4)C3c3cccs3)ccc2O1 (centres undefined),EC50,[25],11.9 µM (active)
same,EC50,[26],8.54 µM (active)
same,AC50,Escherichia coli,18.3 µM (active)
same,EC50,H4,35.2 µM (active)
COc1ccc(C2SCCN2S(=O)(=O)c2ccccc2)cc1 (centres undefined),AC50,Escherichia coli,95.3 µM (active)
